# Columns and labels:
# [1] = tested on: human breast cancer cells; test: Haptotactic migration of breast cancer cells towards fibronectin in a migration plate, migrated cells labeled with calcein-AM; assay type: cell-based; details: for inhibition of migration, dose dependence: sublethal concentration
# Method: (§1) After 18 hours, migrated cells were labeled with calcein-AM and fluorescence quantitated from the bottom. Nonmigrated cells were labeled with propidium iodide and fluorescence quantitated from the top. Estimation of 100% cell death was made by lysing cells in a test chamber with 1% Triton X-100 (TX 100) Error bars represent the standard deviation of 4-16 replicate test chambers. Asterisks represent a significant difference from migration without drugs (P<0.05). RFU=relative fluorescence units.
# (§2) The cell suspension was added to the first chamber of a migration plate containing 96 chambers per plate at a concentration of about 80,000 cells per chamber. The migration plate used in this assay was manufactured by Polyfiltronics. Similar plates are available from Becton-Dickinson (U.S. Pat No. 5,801,055). The second chamber contained either haptotactic stimulus in the form of 20 μg/ml fibronectin or chemotactic in the form of 5% fetal calf serum. Cells were allowed to migrate in a humidified incubator at 37° C. and 5% carbon dioxide […].
# (§3) During the last half hour of the incubation, calcein-AM (Molecular Probes, Eugene, Oreg.) was added to the second chamber to a final concentration of 5 μM and propidium iodide was added to the first chamber to a final concentration of 30 μM. At the end of the incubation the underside of the filters were washed twice in phosphate buffered saline. Fluorescence from each individual well chamber was measured from the bottom using 485 nm excitation and 530 nm emission filters.
# (§4) Fluorescence from each individual well chamber was measured from the top using 560 nm excitation and 645 nm emission wavelength filters using a Tecan SpectraFluor fluorescent plate reader (Research Triangle Park NC). […] The asterisks represent a significant difference from positive control (p<0.05).
# [2] = tested on: human breast cancer cells; test: Chemotactic migration of breast cancer cells towards serum in a migration plate, migrated cells labeled with calcein-AM; assay type: cell-based; details: highly metastatic breast cells; for inhibition at 20 µM: 20 μM drug
# Method: as §1, §2, §3, §4
# [3] = haptotactic and chemotactic migration
# [4] = Homo sapiens, serum stimulus, read-out: inhibition of chemotaxis
SMILES,"inhibition of haptotaxis ([1]; 20 μM drug, fibronectin stimulus, highly metastatic breast cells)","inhibition at 10 µM ([1]; Homo sapiens, 10 μM drug, fibronectin stimulus, highly metastatic breast cells, read-out: inhibition of haptotaxis) [%]","effectiveness at halting migration, comparison of the two drugs [1, 3]","inhibition of migration, dose dependence [1, 3]","haptotactic migration inhibition relative to concentrations causing cell death ([1]; highly metastatic breast cells, FIGS. 3A, 3B)","inhibition at 10 µM ([2]; Homo sapiens, 10 μM drug, serum stimulus, read-out: inhibition of chemotaxis) [%]","inhibition at 20 µM [2, 4] [%]","chemotactic migration inhibition relative to concentrations causing cell death ([2]; FIGS. 3A, 3B)","inhibition of haptotaxis ([1]; 10 μM drug, fibronectin stimulus, highly metastatic breast cells)","inhibition at 20 µM ([1]; Homo sapiens, 20 μM drug, fibronectin stimulus, highly metastatic breast cells, read-out: inhibition of haptotaxis) [%]","inhibition of chemotaxis ([2]; 10 μM drug, serum stimulus)"
"NC(=O)c1nnn(Cc2cc(Cl)c(C(=O)c3ccc(Cl)cc3)c(Cl)c2)c1N [CAI, carboxyamido-triazole]",abolished haptotaxis,32,more effective than tamoxifen at halting migration,inhibited migration in a dose-dependent manner at sublethal concentration,inhibited at lower concentrations than those that cause cell death,7,42,inhibited at lower concentrations than those that cause cell death,–,–,–
CC/C(=C(\c1ccccc1)c1ccc(OCCN(C)C)cc1)c1ccccc1 [tamoxifen],–,–,–,inhibited migration in a dose-dependent manner at sublethal concentration,–,–,9,–,non-significant inhibition,51,non-significant inhibition

# Source: US6448030B1, “Method for predicting the efficacy of anti-cancer drugs” (University of Nevada-Las Vegas, priority 2000, dated 2002)
